We go through 17 compounds from patent publication US6656943B2, “1-phenyl-4-benzlpiperazines: dopamine receptor subtype specific ligands” (Neurogen Corporation, priority 1997, dated 2003).

As a reminder, the Ki is the equilibrium dissociation constant of an inhibitor or competing ligand from its target. Read a high Ki as lower affinity. As a reminder, the melting point is the temperature, or range, at which the solid turns liquid.

Counter-ions that a name gives are not always drawn. Some results are limits rather than exact numbers.

The target in one series is T1, D2 receptors (Homo sapiens, UniProt P14416).
T1 construct: expressed in transfected cells; host or cells: COS cells
T1 sequence (P14416 whole entry): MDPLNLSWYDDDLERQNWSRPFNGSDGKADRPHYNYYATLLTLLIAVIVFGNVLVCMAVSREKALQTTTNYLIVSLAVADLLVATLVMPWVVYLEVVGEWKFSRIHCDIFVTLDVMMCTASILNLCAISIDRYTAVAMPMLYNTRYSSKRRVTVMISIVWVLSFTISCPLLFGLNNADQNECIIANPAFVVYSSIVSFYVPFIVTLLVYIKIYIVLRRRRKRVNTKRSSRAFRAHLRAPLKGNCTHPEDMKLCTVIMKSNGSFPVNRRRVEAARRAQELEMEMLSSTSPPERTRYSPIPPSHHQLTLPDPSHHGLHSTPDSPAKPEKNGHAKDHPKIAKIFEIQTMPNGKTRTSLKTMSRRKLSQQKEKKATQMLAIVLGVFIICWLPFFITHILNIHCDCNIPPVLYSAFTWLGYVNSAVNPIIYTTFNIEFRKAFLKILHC
Kind of series: D2 receptor binding assay (3H-YM 09151-2 displacement). How it is done:
(§1) Pellets of COS cells containing recombinantly produced D2 or D4 receptors from human are used for the assays. The sample is homogenized in 100 volumes (w/vol) of 0.05 M Tris HCl buffer at 4° C. and pH 7.4. The sample is then centrifuged at 30,000×g and resuspended and rehomogenized. The sample is then centrifuged as described above and the final tissue sample is frozen until use. The tissue is resuspended 1:20 (wt/vol) in 0.05 M Tris HCl buffer containing 100 mM NaCl.
(§2) Incubations are carried out at […]. and contain 0.4 ml of tissue sample, 0.5 nM 3H-YM 09151-2 and the compound of interest in a total incubation mixture of 1.0 ml. Nonspecific binding is defined as that binding found in the presence of 1 mM spiperone; without further additions, nonspecific binding is less than 20% of total binding. Representative binding characteristics for compounds of the invention for the D2 and D4 receptor subtypes are shown in Table 2 for cloned human dopamine receptors. Typically, the compounds of the invention have similar binding profiles.

The target in a further series is T2, D4 receptors (Homo sapiens, UniProt P21917).
T2 construct: expressed in transfected cells; host or cells: COS cells
T2 sequence (P21917 1-419): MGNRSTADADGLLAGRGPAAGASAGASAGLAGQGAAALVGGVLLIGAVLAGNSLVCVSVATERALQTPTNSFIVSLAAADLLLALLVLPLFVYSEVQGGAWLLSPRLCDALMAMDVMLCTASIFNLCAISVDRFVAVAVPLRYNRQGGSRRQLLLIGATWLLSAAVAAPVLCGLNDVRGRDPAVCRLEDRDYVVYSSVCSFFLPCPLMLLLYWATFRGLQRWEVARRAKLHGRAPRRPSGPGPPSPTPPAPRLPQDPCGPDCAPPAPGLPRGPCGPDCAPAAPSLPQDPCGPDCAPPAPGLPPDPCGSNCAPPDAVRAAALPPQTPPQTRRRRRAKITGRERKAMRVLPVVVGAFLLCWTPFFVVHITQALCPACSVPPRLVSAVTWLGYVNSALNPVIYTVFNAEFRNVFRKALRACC
The series is described as follows: D4 receptor binding assay (3H-YM 09151-2 displacement). How it is done: as §1, §2

On to `Cc1ccc(N2CCN(Cc3ccc(Cl)cc3)CC2)cc1C` [Compound 2, 1-(3,4-dimethylphenyl)-4-(4-chlorobenzyl)piperazine dihydrochloride], for which the Ki was over 600 nM at D2 receptors and 16 nM at D4 receptors.

`Clc1ccc(CN2CCN(c3ccccc3)CC2)cc1.O=C(O)C(=O)O.O=C(O)C(=O)O` registered a melting point of 228 to 231 °C.

With `CCOc1ccc(N2CCN(Cc3ccc(Cl)cc3)CC2)cc1.Cl.Cl`, the melting point was 235 to 237 °C. On the same count and under the same terms, next, `Cc1ccc(CN2CCN(c3cccc(Cl)c3)CC2)cc1.O=C(O)C(=O)O.O=C(O)C(=O)O`: 199 to 200 °C; `Cc1ccccc1N1CCN(Cc2ccc(Cl)cc2)CC1.O=C(O)C(=O)O.O=C(O)C(=O)O`: 205 to 206 °C. As for `COc1ccc(N2CCN(Cc3ccc(Cl)cc3)CC2)cc1` [Compound 3, 1-(4-methoxyphenyl)-4-(4-chlorobenzyl)piperazine dioxalate], the figures for the inhibitory constant (Ki) at D2 receptors and on D4 receptors were over 1000 nM and 5 nM, respectively. Take `Cc1ccc(N2CCN(Cc3ccc(Cl)cc3)CC2)cc1C` (as salt: hydrochloride) [Compound 2, 1-(3,4-dimethylphenyl)-4-(4-chlorobenzyl)piperazine dihydrochloride]: the melting point is 225 to 228 °C. The same measure, in the same setting: for `Clc1ccc(CN2CCN(c3ccc(Cl)c(Cl)c3)CC2)cc1` the value was 82 to 83 °C; for `COc1ccccc1N1CCN(Cc2ccc(Cl)cc2)CC1.O=C(O)C(=O)O.O=C(O)C(=O)O`, 217 to 220 °C.

`Br.Br.CCOc1ccccc1N1CCN(Cc2ccc(Cl)cc2)CC1` gave a melting point of 215 to 217 °C. Regarding `Clc1ccc(CN2CCN(c3ccc(Cl)cc3)CC2)cc1` [Compound 1, 1-(4-Chlorophenyl)-4-(4-chlorobenlzyl)piperazine Dihydrochloride], the Ki at D2 receptors was over 1000 nM; on D4 receptors, 5 nM.

`Cc1cccc(N2CCN(Cc3ccc(Cl)cc3)CC2)c1.O=C(O)C(=O)O.O=C(O)C(=O)O` returned a melting point of 233 to 235 °C.

As for `Cc1ccc(CN2CCN(c3ccc(Cl)cc3)CC2)cc1` [Compound 4, 1-(4-chlorophenyl)-4-(4-methylbenzyl)piperazine dihydrobromide], the inhibitory constant (Ki) at D2 receptors is over 300 nM; on D4 receptors, 15 nM.

`Clc1ccc(CN2CCN(c3ccccc3Cl)CC2)cc1.O=C(O)C(=O)O.O=C(O)C(=O)O` showed a melting point of 203 to 204 °C. On the same count and under the same terms, for `COc1ccc(N2CCN(Cc3ccc(Cl)cc3)CC2)cc1` (as salt: oxalate) [Compound 3, 1-(4-methoxyphenyl)-4-(4-chlorobenzyl)piperazine dioxalate] the value was 211 to 212 °C. Same read-out and setting: next, `Cc1ccc(N2CCN(Cc3ccc(Cl)cc3)CC2)cc1.O=C(O)C(=O)O.O=C(O)C(=O)O`: 204 to 206 °C.

In turn, `Br.Br.Clc1ccc(CN2CCN(c3cccc(Cl)c3)CC2)cc1` gave a melting point of 238 to 240 °C.
